# Laboratory results as given in patent US9371321B2, “Azaindole derivatives” (Takeda Pharmaceutical Company Limited, priority 2014, dated 2016).
# pIC50: −log10 of the molar value. Read-outs that look alike come from different tables or passages of the source.
# Assays:
# [1] = pH 6.8
# Experimental: (§1) Testing media for both assays are prepared as follows: • JP1 (Japan Pharmacopoeia 1st fluid for dissolution): In a 1 L volumetric flask, dissolve 2.0 g sodium chloride in about 500 mL deionized water. Add 84 mL of 1M hydrochloric acid and dilute to volume with deionized water. Mix thoroughly. • JP2 (Japan Pharmacopoeia 2nd fluid for dissolution): In a 1 L volumetric flask dissolve 6.806 g of anhydrous potassium phosphate monobasic in about 500 mL of deionized water. Add 23.6 mL of 1M sodium hydroxide and dilute to volume with deionized water. Mix thoroughly. • GCDC (20-mM sodium glycochenodeoxycholate in JP2): In a 50 mL volumetric flask, dissolve 0.475 g of sodium glycochenodeoxycholate with ˜30 mL JP2. Dilute to volume with additional JP2. Mix thoroughly. • Other pH buffers between pH 2-6 can also be prepared as additional testing media.
# (§2) About 3 mg of compound is weighed into an HPLC vial. Testing medium (0.5 mL) is then added to the compound vial. The vial is sealed with a screw-on cap and placed in an incubator set at 37° C. with orbital shaking at 150 RPM for overnight equilibration. At the end of equilibration, the final pH is measured, and whether the compound is totally dissolved (clear solution) or not (solid in vial) is recorded. Then the sample mixture is transferred to a centrifuge tube with filter insert (0.45 μm nylon filter) and centrifuge filtered. The filtrate is diluted appropriately (2 to 50× dilution) before HPLC analysis. A calibration standard is prepared by dissolving ˜5 mg of compound in diluent and q.s. to volume in a 20 mL volumetric flask. A separate QC standard is prepared at about the same concentration. The default diluent is 1:1 acetonitrile/water. Alternative diluents such as 1:1 DMA/water and other mixtures may also be used depending on the solubility behavior of the compound. The calibration response factor is calculated by dividing the standard peak area with standard concentration. The sample solubility in a test medium is calculated by dividing the sample peak area with the corresponding standard response factor and multiplied by sample dilution factor. The response factor from QC standard is also calculated and compared with calibration standard. If the response factors of the calibration and QC standard differ by more than 5%, new calibration and QC standards should be prepared and samples are reanalyzed with new standards.
# [2] = target: T1, PI3Kδ (recombinant GST-tagged PIK3CD co-expressed with PIK3R1, p85α) (Homo sapiens, UniProt O00329); assay: modified PIK3CD Adapta TR-FRET kinase assay (PI3Kδ inhibition); type: biochemical; details: 2 μM ATP, 50 μM PIP2, room temperature, 1 hour
# T1 construct: The protein is full length and co-expressed with untagged PIK3R1; GST; purchased Invitrogen PV5274
# T1 sequence (O00329 whole entry): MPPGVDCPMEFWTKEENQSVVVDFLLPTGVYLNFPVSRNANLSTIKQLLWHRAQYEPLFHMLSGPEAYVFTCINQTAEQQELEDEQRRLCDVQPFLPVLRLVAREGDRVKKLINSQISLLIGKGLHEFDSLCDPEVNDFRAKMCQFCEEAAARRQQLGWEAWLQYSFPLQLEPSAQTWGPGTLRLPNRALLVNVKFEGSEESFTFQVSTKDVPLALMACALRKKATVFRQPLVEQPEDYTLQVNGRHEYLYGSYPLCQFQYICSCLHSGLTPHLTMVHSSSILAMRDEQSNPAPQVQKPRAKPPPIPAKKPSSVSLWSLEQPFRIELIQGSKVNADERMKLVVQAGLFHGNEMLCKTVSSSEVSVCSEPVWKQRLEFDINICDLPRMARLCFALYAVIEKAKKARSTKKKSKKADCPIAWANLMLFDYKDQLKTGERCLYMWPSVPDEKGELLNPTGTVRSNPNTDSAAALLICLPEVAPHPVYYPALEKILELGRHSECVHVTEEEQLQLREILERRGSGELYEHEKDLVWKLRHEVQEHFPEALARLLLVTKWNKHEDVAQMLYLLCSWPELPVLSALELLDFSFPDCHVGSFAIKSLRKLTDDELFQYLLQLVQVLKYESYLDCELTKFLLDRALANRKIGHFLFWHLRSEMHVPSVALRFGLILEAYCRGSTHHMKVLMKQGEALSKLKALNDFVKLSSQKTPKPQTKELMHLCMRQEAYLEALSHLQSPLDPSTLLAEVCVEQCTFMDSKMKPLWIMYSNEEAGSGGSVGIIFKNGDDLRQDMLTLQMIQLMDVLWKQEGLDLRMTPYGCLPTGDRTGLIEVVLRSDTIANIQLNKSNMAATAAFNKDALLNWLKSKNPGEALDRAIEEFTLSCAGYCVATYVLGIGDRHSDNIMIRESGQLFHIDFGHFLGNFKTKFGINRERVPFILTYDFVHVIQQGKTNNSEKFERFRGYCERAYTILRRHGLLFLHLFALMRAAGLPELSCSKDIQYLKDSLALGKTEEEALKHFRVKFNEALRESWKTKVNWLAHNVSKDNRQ
# T1 sequence (P27986 whole entry partner): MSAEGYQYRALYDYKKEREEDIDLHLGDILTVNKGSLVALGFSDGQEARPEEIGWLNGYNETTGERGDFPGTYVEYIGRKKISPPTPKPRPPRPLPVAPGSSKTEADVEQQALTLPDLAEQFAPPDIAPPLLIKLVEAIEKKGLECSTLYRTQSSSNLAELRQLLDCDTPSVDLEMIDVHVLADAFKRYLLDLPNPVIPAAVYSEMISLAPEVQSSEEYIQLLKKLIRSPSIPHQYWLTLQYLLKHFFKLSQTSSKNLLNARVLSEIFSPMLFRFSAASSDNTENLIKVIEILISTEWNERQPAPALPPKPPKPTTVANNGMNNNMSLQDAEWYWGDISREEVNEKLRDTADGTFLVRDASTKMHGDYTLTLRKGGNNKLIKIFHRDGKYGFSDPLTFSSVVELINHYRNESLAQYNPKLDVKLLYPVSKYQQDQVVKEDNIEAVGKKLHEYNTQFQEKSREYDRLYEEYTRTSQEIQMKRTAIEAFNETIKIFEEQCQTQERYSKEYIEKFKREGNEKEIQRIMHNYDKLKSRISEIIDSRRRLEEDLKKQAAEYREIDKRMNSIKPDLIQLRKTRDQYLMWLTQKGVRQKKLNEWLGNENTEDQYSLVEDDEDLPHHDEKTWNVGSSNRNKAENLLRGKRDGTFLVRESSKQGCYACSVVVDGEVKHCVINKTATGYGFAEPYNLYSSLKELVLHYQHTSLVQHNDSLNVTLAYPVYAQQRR
# Experimental: The activity of compounds as PI3Kδ inhibitors may be determined by a variety of methods, including in vitro and in vivo methods. The following in vitro assay measures a test compound's ability to inhibit PI3Kδ-mediated phosphorylation of PIP2 and ATP.
# Recombinant GST-tagged PIK3CD is purchased from Invitrogen (Part Number: PV5274). The protein is full length and co-expressed with untagged PIK3R1, phosphoinositide-3-kinase regulatory subunit 1 (p85α). The protein is stored at −20° C. in 50 mM TRIS (pH 7.5), 150 mM NaCl, 0.5 mM EDTA, 0.02% Triton® X-100, 2 mM DTT, and 50% glycerol.
# A modified PIK3CD Adapta® assay (Invitrogen, Carlsbad, Calif.) is used to measure PI3Kδ inhibition of the example compounds. The assay has two phases. In the first phase, kinase reaction components, which include the enzyme (PIK3CD), substrates (PIP2, ATP), test compound (inhibitor), and assay buffer are added to each well, and the reaction is allowed to incubate for a pre-determined period of time. After reaction, a detection solution composed of a Eu (europium)-labeled anti-ADP antibody, Alexa Fluor® 647-labeled ADP tracer, and EDTA (to stop the kinase reaction) is added to each assay well. In this second phase, ADP formed by the kinase reaction displaces the Alexa Fluor® 647-labeled ADP tracer from the antibody, resulting in a decrease in time-resolved fluorescence resonance energy transfer (TR-FRET) signal. In the presence of the inhibitor, the amount of ADP formed by the kinase reaction is reduced, and the resulting intact antibody-tracer interaction maintains a high TR-FRET signal.
# The assay uses black Greiner® 384-well plates (784076). The reaction buffer contains 50 mM Hepes (pH 7.5), 3 mM MgCl2, 1 mM EGTA, 100 mM NaCl, 0.03% CHAPS; 2 mM DTT is added fresh prior to each experiment. Enzyme (4 μL, estimated 1.5 nM in buffer) is first added to the wells of the plate. Next, test compounds (2 μL) from a source plate (5% dilution plate) are introduced into the wells. The final DMSO concentration in each assay well is 1%. […] Other wells contain test compounds serially diluted across the plate 11 times for a total of 12 data points. The kinase reactions are carried out at room temperature and are initiated by the addition of 4 μL of solution containing 2 μM ATP and 50 μM PIP2. Each reaction is stopped after 1 hour±10 minutes via addition of […], which contains a final assay concentration of 3 nM Alexa Fluor® 647-labeled ADP tracer, 2 nM Eu-anti-ADP Antibody, and 10 mM EDTA. After allowing the solutions to equilibrate for 30±10 minutes, a PHERAstar plate reader is used to excite the Eu donor (at 337 nm) and to detect emission from the Alexa Fluor® 647 at 665 nm. This emission signal is referenced or “ratioed” to the emission from Eu at 620 nm. The emission ratio (665 nm/620 nm) from each well is collected and converted to percent conversion using a standard curve for the assay conditions: % conversion=B*(C+A−emission ratio)/(emission ratio−C), where “A” and “C” are the maximum and minimum values of the emission ratio obtained from the standard curve of emission ratio vs. % conversion (ATP-ADP); “B” is the emission ratio corresponding to the % conversion at the EC50 value for the ADP Tracer-Eu anti-ADP antibody complex. The percent inhibition for a given inhibitor concentration is computed from % conversion for the reaction and for the positive and negative controls. Corresponding IC50 values (molar concentration at 50% inhibition) are calculated by non-linear curve fitting of the compound concentrations and values of percent inhibition to the standard IC50 equation.
# [3] = Thermodynamic solubility assay in JP2; details: for solubility thermodynamic: JP2 (Japan Pharmacopoeia 2nd fluid for dissolution), 37 °C, pH 6.8, aqueous buffer, thermodynamic from solid
# Experimental: as §1, §2
pIC50 [2],Molecule,further results
9.22,"4-((S)-1-(6-((1S,4S)-2,5-Diazabicyclo[2.2.1]heptan-2-yl)-1-methyl-1H-pyrrolo[3,2-b]pyridin-5-yl)ethylamino)-2-amino-6-methylpyrimidine-5-carbonitrile [Example 14]",Thermodynamic Solubility in JP2 [1]: >1830 µg/mL
8.89,"Cc1nc(N)nc(N[C@@H](C)c2nc3ccn(C)c3cc2[C@H]2CCNC2)c1C#N (single isomer, unassigned) [Example 11]",
8.66,"Cc1nc(N)nc(N[C@@H](C)c2nc3ccn(C)c3cc2N2CCN[C@H](C)C2)c1C#N [Example 9, 2-Amino-4-methyl-6-((S)-1-(1-methyl-6-((R)-3-methylpiperazin-1-yl)-1H-pyrrolo[3,2-b]pyridin-5-yl)ethylamino)pyrimidine-5-carbonitrile]",
8.85,"Cc1nc(N)nc(N[C@@H](C)c2nc3ccn(C)c3cc2C2CCNCC2)c1C#N [Example 12, (S)-2-Amino-4-methyl-6-(1-(1-methyl-6-(piperidin-4-yl)-1H-pyrrolo[3,2-b]pyridin-5-yl)ethylamino)pyrimidine-5-carbonitrile]",solubility thermodynamic [3]: 150 µg/mL
8.26,"Cc1nc(N)nc(N[C@@H](C)c2nc3ccn(C)c3cc2NC2CCNCC2)c1C#N [Example 15, (S)-2-Amino-4-methyl-6-((1-(1-methyl-6-(piperidin-4-ylamino)-1H-pyrrolo[3,2-b]pyridin-5-yl)ethyl)amino)pyrimidine-5-carbonitrile]",
8.62,"Cc1nc(N)nc(N[C@@H](C)c2nc3ccn(C)c3cc2N(C)C2CNC2)c1C#N [Example 16, (S)-2-Amino-4-((1-(6-(azetidin-3-yl(methyl)amino)-1-methyl-1H-pyrrolo[3,2-b]pyridin-5-yl)ethyl)amino)-6-methylpyrimidine-5-carbonitrile]",
9.10,"CC[C@H](Nc1nc(N)nc(C)c1C#N)c1nc2ccn(C)c2cc1N1CCNCC1 [Example 19, (S)-2-Amino-4-methyl-6-((1-(1-methyl-6-(piperazin-1-yl)-1H-pyrrolo[3,2-b]pyridin-5-yl)propyl)amino)pyrimidine-5-carbonitrile]",

# Continued, molecule first:
Molecule,pIC50 [2],further results
"Cc1nc(N)nc(N[C@@H](C)c2nc3ccn(C)c3cc2C2CCC(N)CC2)c1C#N (mixture of isomers) [Example 18, (S)-2-Amino-4-((1-(6-(4-aminocyclohexyl)-1-methyl-1H-pyrrolo[3,2-b]pyridin-5-yl)ethyl)amino)-6-methylpyrimidine-5-carbonitrile]",8.77,
"Cc1nc(N)nc(N[C@@H](C)c2nc3ccn(C)c3cc2N2CCC[C@@H](N)C2)c1C#N (single isomer, unassigned) [Example 4]",8.54,
"Cc1nc(N)nc(N[C@@H](C)c2nc3ccn(C)c3cc2N2CCC[C@H](N)C2)c1C#N (single isomer, unassigned) [Example 5]",8.27,
"Cc1nc(N)nc(N[C@@H](C)c2nc3ccn(C)c3cc2N2CC[C@@H](N)C2)c1C#N (single isomer, unassigned) [Example 7]",8.38,
"Cc1nc(N)nc(N[C@@H](C)c2nc3ccn(C)c3cc2N2CC[C@H](N)C2)c1C#N (single isomer, unassigned) [Example 8]",8.59,
"Cc1nc(N)nc(N[C@@H](C)c2nc3ccn(C)c3cc2[C@@H]2CCNC2)c1C#N (single isomer, unassigned) [Example 10]",8.46,
"C[C@H](Nc1nc(N)nc(N)c1C#N)c1nc2ccn(C)c2cc1C1CCOCC1 [A, reference compound]",,solubility thermodynamic [3]: 20 µg/mL
"C[C@H](Nc1nc(N)nc(N)c1C#N)c1nc2ccn(C)c2cc1N1CCOCC1 [B, reference compound]",,solubility thermodynamic [3]: 26 µg/mL
"Cc1nc(N)nc(N[C@@H](C)c2nc3ccn(C)c3cc2N2CCCNCC2)c1C#N [Example 2, (S)-4-(1-(6-(1,4-Diazepan-1-yl)-1-methyl-1H-pyrrolo[3,2-b]pyridin-5-yl)ethylamino)-2-amino-6-methylpyrimidine-5-carbonitrile]",8.30,
"CN[C@H]1CCN(c2cc3c(ccn3C)nc2[C@H](C)Nc2nc(N)nc(C)c2C#N)C1 [Example 3, 2-Amino-4-methyl-6-((S)-1-(1-methyl-6-((S)-3-(methylamino)pyrrolidin-1-yl)-1H-pyrrolo[3,2-b]pyridin-5-yl)ethylamino)pyrimidine-5-carbonitrile]",8.25,
"Cc1nc(N)nc(N[C@@H](C)c2nc3ccn(C)c3cc2N2CCN[C@@H](C)C2)c1C#N [Example 6, 2-Amino-4-methyl-6-((S)-1-(1-methyl-6-((S)-3-methylpiperazin-1-yl)-1H-pyrrolo[3,2-b]pyridin-5-yl)ethylamino)pyrimidine-5-carbonitrile]",8.30,solubility thermodynamic [3]: 1730 µg/mL
"C[C@H](Nc1nc(N)nc(N)c1C#N)c1nc2ccn(C)c2cc1N1CCNCC1 [Example 13, (S)-2,4-Diamino-6-(1-(1-methyl-6-(piperazin-1-yl)-1H-pyrrolo[3,2-b]pyridin-5-yl)ethylamino)pyrimidine-5-carbonitrile]",9.00,
"Cc1nc(N)nc(N[C@@H](C)c2nc3ccn(C)c3cc2C2=CCC(N)CC2)c1C#N (stereo partly drawn) [Example 17, 2-Amino-4-(((1S)-1-(6-(4-aminocyclohex-1-en-1-yl)-1-methyl-1H-pyrrolo[3,2-b]pyridin-5-yl)ethyl)amino)-6-methylpyrimidine-5-carbonitrile]",8.07,
"CCc1nc(N)nc(N[C@@H](C)c2nc3ccn(C)c3cc2N2CCNCC2)c1C#N [Example 20, (S)-2-Amino-4-ethyl-6-((1-(1-methyl-6-(piperazin-1-yl)-1H-pyrrolo[3,2-b]pyridin-5-yl)ethyl)amino)pyrimidine-5-carbonitrile]",6.66,
"(S)-2-Amino-4-methyl-6-(1-(1-methyl-6-(piperazin-1-yl)-1H-pyrrolo[3,2-b]pyridin-5-yl)ethylamino)pyrimidine-5-carbonitrile [Example 1]",9.15,"Thermodynamic Solubility in JP2 ([3]; solid free base, JP2 (Japan Pharmacopoeia 2nd fluid), 37° C., overnight equilibration): 2195 µg/mL"
